Measured values published in patent US20240174618A1, “SUBSTITUTED (2-HETEROARYLOXYPHENYL)SULFONATES, SALTS THEREOF AND THEIR USE AS HERBICIDAL AGENTS” (Bayer Aktiengesellschaft, priority 2021, published 2024).

Assays:
Format in all cases: in vivo
[1] = tested on: Alopecurus myosuroides (ALOMY); experiment: C. Herbicidal pre-emergence efficacy, ALOMY; settings: scored after about 3 weeks
Excerpt: (§1) Seeds of monocotyledonous and dicotyledonous weed plants and crop plants were placed in plastic or organic planting pots and covered with soil. The compounds of the invention, formulated in the form of wettable powders (WP) or as emulsion concentrates (EC), were then applied to the surface of the covering soil as aqueous suspension or emulsion with addition of 0.5% additive at a water application rate equivalent to 600 l/ha (converted). After the treatment, the pots were placed in a greenhouse and kept under good growth conditions for the test plants. After about 3 weeks, the efficacy of the preparations was scored visually in comparison with untreated controls as percentages. For example, • 100% efficacy=plants have died, • 0% efficacy=like untreated control plants.
(§2) Tables C1a to C14b below show the effects of selected compounds of the general formula (I) according to table 1 on various harmful plants at an application rate corresponding to 320 g/ha or less, which were obtained by the experimental procedure mentioned above.

Avena fatua (AVEFA) = experiment: C. Herbicidal pre-emergence efficacy, AVEFA; settings: 320 g/ha, scored after about 3 weeks
Excerpt: as §1, §2

[2] = tested on: Pharbitis purpurea (PHBPU); experiment: C. Herbicidal pre-emergence efficacy, PHBPU; settings: scored after about 3 weeks
Excerpt: as §1, §2

Poa annua (POAAN) = experiment: B. Herbicidal post-emergence efficacy, POAAN
Method in brief: (§3)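 Weeds grown in sandy loam in greenhouse and sprayed at the one-leaf stage, 2–3 weeks after sowing, with WP or EC formulations plus 0.5% additive at 600 L/ha water. Injury rated visually versus untreated controls after about 3 weeks (100% = dead, 0% = like control); rates up to 1280 g/ha.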

[3] = tested on: Digitaria sanguinalis (DIGSA); experiment: E. Herbicidal post-emergence efficacy, DIGSA
Description: (§4) Seeds of monocotyledonous and dicotyledonous weeds and crop plants were placed in sandy loam in plastic or organic planting pots, covered with soil and cultivated in a greenhouse under controlled growth conditions. 2 to 3 weeks after sowing, the test plants were treated at the one-leaf stage. The compounds of the invention, formulated in the form of wettable powders (WP) or as emulsion concentrates (EC), were then sprayed onto the green parts of the plants as aqueous suspension or emulsion with addition of 0.5% additive at a water application rate of 600 l/ha (converted). After the test plants had been kept in the greenhouse under optimum growth conditions for about 3 weeks, the activity of the preparations was rated visually in comparison to untreated controls.
(§5) For example, • 100% efficacy=plants have died, • 0% action=like untreated control plants.
(§6) Tables E1a to E12b below show the effects of selected compounds of the general formula (I) according to table 1 on various harmful plants at an application rate corresponding to 320 g/ha or less, which were obtained by the experimental procedure mentioned above.

[4] = tested on: Alopecurus myosuroides (ALOMY); experiment: E. Herbicidal post-emergence efficacy, ALOMY; settings: application rate 320 g/ha
Description: as §4, §5, §6

Lolium rigidum (LOLRI) = experiment: B. Herbicidal post-emergence efficacy, LOLRI
Method in brief: as §3

[5] = tested on: Triticum aestivum (TRZAS); experiment: D. Pre-emergence effect on useful plants, TRZAS; settings: useful plant
Method in brief: (§7)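 Seeds sown in pots and covered with soil; WP or EC formulations sprayed on the soil surface as aqueous suspension/emulsion with 0.5% additive at 600 l/ha water. Plants grown in greenhouse; crop damage scored visually after about 3 weeks as % versus untreated controls (100% = dead, 0% = like control).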

[6] = tested on: Matricaria inodora (MATIN); experiment: C. Herbicidal pre-emergence efficacy, MATIN; settings: scored after about 3 weeks
Excerpt: as §1, §2

Zea mays (ZEAMX) = experiment: D. Pre-emergence effect on useful plants, ZEAMX; settings: useful plant, application rate 80 g/ha
Method in brief: as §7

Structure (SMILES)	Pre-emergence efficacy against ALOMY ([1]; 80 g/ha)	Pre-emergence efficacy against ALOMY ([1]; 320 g/ha)	Pre-emergence efficacy against AVEFA (Avena fatua (AVEFA))	Pre-emergence efficacy against PHBPU ([2]; 80 g/ha)	Pre-emergence efficacy against PHBPU ([2]; 320 g/ha)	Post-emergence efficacy against POAAN (Poa annua (POAAN); 80 g/ha)	Post-emergence efficacy against POAAN (Poa annua (POAAN); 320 g/ha)	Post-emergence efficacy against POAAN (Poa annua (POAAN); 1280 g/ha)	Post-emergence efficacy against DIGSA in % ([3]; application rate 320 g/ha)	Post-emergence efficacy against ALOMY in % [4]	Post-emergence efficacy against DIGSA in % ([3]; application rate 80 g/ha)	Post-emergence efficacy against LOLRI (Lolium rigidum (LOLRI); 1280 g/ha)	Pre-emergence efficacy against TRZAS in % ([5]; application rate 80 g/ha)	Post-emergence efficacy against LOLRI (Lolium rigidum (LOLRI); 320 g/ha)	Pre-emergence efficacy against MATIN ([6]; 80 g/ha)	Pre-emergence efficacy against MATIN ([6]; 320 g/ha)	Pre-emergence efficacy against TRZAS in % ([5]; application rate 320 g/ha)	Pre-emergence efficacy against ZEAMX in % (Zea mays (ZEAMX))
O=S(=O)(CCCC(F)F)Oc1c(F)cccc1Oc1ncc(Cl)cn1 [Example I-56]	100%	100%	80%	100%	100%	90%	90%	90%	100%	80%	–	–	–	–	–	–	–	–
CC(C)CS(=O)(=O)Oc1ccccc1Oc1ncc(Cl)cn1 [Example I-7, [2-(5-Chloropyrimidin-2-yl)oxyphenyl] 2-methylpropane-1-sulfonate]	90%	100%	90%	–	–	–	–	90%	100%	90%	90%	–	–	–	–	–	–	–
O=S(=O)(CCCC(F)(F)F)Oc1c(F)cccc1Oc1ncc(Br)cn1 [Example I-41]	–	100%	–	80%	100%	–	90%	90%	100%	100%	100%	90%	20%	–	–	–	–	–
O=S(=O)(CCCCCl)Oc1ccccc1Oc1ncc(Cl)cn1 [Example I-15]	–	90%	–	–	90%	–	90%	90%	90%	–	80%	90%	–	90%	–	–	–	–
O=S(=O)(CCCC(F)(F)F)Oc1c(F)cccc1Oc1ncc(Cl)cn1 [Example I-49]	100%	100%	–	90%	100%	–	–	90%	100%	80%	90%	90%	–	–	80%	100%	–	–
O=S(=O)(CCC(F)(F)F)Oc1c(Cl)cccc1Oc1ncc(Br)cn1 [Example I-32]	–	100%	–	–	–	90%	100%	100%	90%	–	–	90%	0%	–	–	80%	10%	–
COCCS(=O)(=O)Oc1c(F)cccc1Oc1ncc(Cl)cn1 [Example I-52]	–	100%	–	–	–	–	90%	90%	–	–	–	90%	0%	–	–	–	–	0%
O=S(=O)(CCC(F)(F)F)Oc1c(Cl)cccc1Oc1ncc(Cl)cn1 [Example I-38]	–	100%	–	–	–	–	–	90%	90%	80%	–	90%	0%	–	80%	80%	–	–
